Values of other authors as cited in US11766390B2, “Method for dyeing keratinous material, comprising the use of an organosilicon compound, a colored effect pigment and a film-forming polymer II” (Henkel AG & Co. KGaA, priority 2019, dated 2023).

Details: for solubility in water: 25° C.

| solubility in water (in words) (at 25° C.) | SMILES | solubility in water |
| --- | --- | --- |
|  | CCN(Cc1cccc(S(=O)(=O)[O-])c1)c1ccc(C(=C2C=CC(=[N+](CC)Cc3cccc(S(=O)(=O)[O-])c3)C=C2)c2ccccc2S(=O)(=O)[O-])cc1.[Na+].[Na+] [Acid Blue 9] | more than 20 % by weight |
|  | O=S(=O)([O-])c1ccc(N=Nc2c(O)ccc3ccccc23)cc1.[Na+] [Acid Orange 7, sodium salt of 4-[(2-hydroxy-1-naphthyl)azo]benzene sulphonate] | more than 7 g/L |
|  | Nc1cc(S(=O)(=O)[O-])cc2cc(S(=O)(=O)[O-])c(N=Nc3ccccc3)c(O)c12.[Na+].[Na+] [Acid Red 33, disodium salt of 5-amino-4-hydroxy-3-(phenylazo)-naphthalene-2,7-disulphonate] | 2500 µg/mL |
|  | O=C([O-])c1c(Cl)c(Cl)c(Cl)c(Cl)c1-c1c2c(Br)cc(=O)c(Br)c-2oc2c(Br)c(O)cc(Br)c12.O=C([O-])c1c(Cl)c(Cl)c(Cl)c(Cl)c1-c1c2c(Br)cc(=O)c(Br)c-2oc2c(Br)c(O)cc(Br)c12.[Na+].[Na+] [Acid Red 92, disodium salt of 3,4,5,6-tetrachloro-2-(1,4,5,8-tetrabromo-6-hydroxy-3-oxoxanthen-9-yl)benzoic acid] | greater than 10 g/L |
| highly soluble | O=C([O-])C1=NN(c2ccc(S(=O)(=O)[O-])cc2)C(=O)C1N=Nc1ccc(S(=O)(=O)[O-])cc1.[Na+].[Na+].[Na+] (centres unmarked) [Acid Yellow 23, trisodium salt of 4,5-dihydro-5-oxo-1-(4-sulfophenyl)-4-((4-sulfophenyl)azo)-1H-pyrazole-3-carboxylic acid] |  |
